Patent US6953786B2, “Compositions comprising plant-derived polyphenolic compounds and inhibitors of reactive oxygen species and methods of using thereof” (The Regents of the University of California, priority 2002, dated 2005)
Residues, ends and D or L forms follow the SMILES beside them. *: point of attachment. Cbz = O=C(OCc1ccccc1)*; CH2F = FC*

How the values were obtained:
PARP [1] = test: PARP proteolysis (Western blot); assay type: cell-based, rat; conditions: BSp73AS, 6 hours, 50 μM inhibitor
Description: (§1) BSp73AS cells were cultured for 6 hours and Mia PACA-2 cells were cultured for 24 hours in the presence or absence of 100 μM of each rutin, quercetin or trans-resveratrol and with or without 50 μM of each […]. The cells were washed twice with PBS and lysed by incubating for 20 minutes at 4° C. in lysis buffer comprising 0.15 M NaCl, 50 mM Tris (pH 7.2), 1% deoxycholic acid (wt/vol), 1% Triton X-100 (wt/vol), 0.1% […] (wt/vol) and 1 mM PMSF, as well as 5 μg/ml each of protease inhibitors, pepstatin, leupeptin, chymostatin, antipain, and aprotinin. Then the cell lysates were centrifuged for 20 minutes at 15,000 g at 4° C. The supernatants were separated by 4-20% SDS-PAGE for 2 hours at 120 V using precast Tris-glycine gels and a Mini-Cell gel apparatus (Novex, San Diego, Calif.). Separated proteins were electrophoretically transferred to a nitrocellulose membrane for 2 hours at 30 V using a Novex Blot Module (Novex, San Diego, Calif.). Nonspecific binding was blocked by 1 hour incubation of nitrocellulose membranes in 5% (wt/vol) nonfat dry milk in Tris-buffered saline (TBS; pH 7.5). Blots were then incubated overnight at 4° C. with rabbit polyclonal antibody against poly (ADP-ribose) polymerase (PARP) (Santa Cruz Biotechnology, Santa Cruz, Calif.) (1;3,000) in an antibody buffer comprising (1% (wt/vol) non-fat dry milk in TTBS (0.05% vol/vol) Tween-20 in TBS), washed 3 times with TTBS and finally incubated for 1 hour with a peroxidase-labeled secondary antibody in the antibody buffer. Blots were developed for visualization using ECL detection kit. To test for equal protein loading, the blots were stripped and re-probed with an antibody against tubulin. When processing of a protein was measured, a decrease in unprocessed full-length form was measured concomitantly with the increase in the cleaved, active form. The experiment was repeated 3 times with similar results.

Mia PACA-2 cells [2] = test: Oligonucleosomal DNA fragmentation by cell death ELISA; assay type: cell-based, human; conditions: Mia PACA-2, 72 hours, with serum
Description: Mia PACA-2 cells were cultured for 72 hours in the presence of serum with or without 15 μM DPI, 10 mM Tiron, 100 μM genistein, 100 μM or 50 μM trans-resveratrol, or a combination thereof. Oligonucleosomal DNA fragmentation was measured in cell lysates by cell death ELISA.
Annexin staining was conducted as described above. Cells were collected, washed with PBS, and centrifuged for 10 min at 200×g. DNA fragmentation was determined using Cell Death Detection ELISA Plus kit (Roche Molecular Biochemicals).
To determine the role of caspases in the effects of combinations of agents on apoptosis, the effects of caspase-3 activity (DEVDase activity) as well as the effect of the broad spectrum caspase inhibitor, Z-VAD, on apoptosis was measured. Specifically, Mia PACA-2 cells were cultured for 72 hours in the presence of serum with or without 100 μM Z-VAD, 15 μM DPI, 100 μM trans-resveratrol, 100 μM genistein, a combination of trans-resveratrol and DPI, and a combination of genistein and DPI. DEVDase activity was measured in whole cell lysates with a fluorimetric assay. DNA fragmentation was measured in cell lysates by cell death ELISA.
In particular, Mia PACA-2 cells were cultured for 72 hours in the presence of serum with or without 50 μM trans-resveratrol (RS), 15 μM DPI, a combination of DPI and trans-resveratrol (RS+DPI), 10 μM MG-132 alone and in combination with RS, DPI, and RS+DPI. Internucleosomal DNA fragmentation was measured in cell lysates by cell death ELISA.

caspase-3 = test: Caspase-3 (DEVDase) activity, fluorogenic assay with DEVD-AMC; assay type: cell-based, human; conditions: Mia PACA-2, 24 hours; Z-VAD FMK 50 μM (FIG. 12B)
Description: To determine whether a polyphenolic compound activates caspase-3 activity in a time-dependent manner, the following assay was conducted. BSp73AS cells were cultured for 0, 1, 3, and 6 hours and Mia PACA-2 cells were cultured in the absence of serum or growth factors for 0, 1, 4, 6, and 24 hours in the presence of 100 μM or quercetin, trans-resveratrol, rutin, or control. Caspase-3 activity was measured in cell lysates with a fluorogenic assay using DEVD-AMC as a substrate. The results were normalized to the DEVDase activity in untreated cells.
A fluorimetric assay for caspase-3 activity was conducted. […] Cytosolic protein extracts (supernatants) were collected, protein concentrations were determined and the extracts were aliquoted and stored at −80° C. […] The reaction was started by addition of caspase-3 substrate, the readings were taken at 0, 60, 90, and 120 minutes. Fluorescence was calibrated using a standard curve for AMC. The data were expressed as mol AMC/mg protein/min.
Mia PACA-2 cells were cultured in the absence of serum or growth factors for 24 hours in the presence or absence of quercetin (100 μM), trans-resveratrol (100 μM), Z-VAD FMK (50 μM), cyclosporin A (5 μM) and/or aristolochic acid (50 μM). […] The reaction was started by addition of caspase-3 substrate, the readings were taken at 0, 60, 90, and 120 minutes. Fluorescence was calibrated using a standard curve for AMC. […] The data were expressed as mol AMC/mg protein/min. […]

PARP [3] = test: PARP proteolysis (Western blot); assay type: cell-based, human; conditions: Mia PACA-2, 24 hours, 50 μM inhibitor
Description: as §1

cytochrome c = test: Mitochondrial cytochrome c release (Western blot); assay type: cell-based, human; conditions: Mia PACA-2, 24 hours, Z-VAD FMK 50 μM
Description: In order to determine the effects polyphenolic compounds have on mitochondrial cytochrome c release and apoptosis, the following assay was conducted. BSp73AS cells were cultured for 6 hours and Mia PACA-2 cells were cultured in the absence of serum or growth factors for 24 hours in the absence or presence of 100 μM of each rutin, trans-resveratrol, genistein, or quercetin. Cells were washed twice with ice-cold PBS, pH 7.2 and resuspended in extraction buffer, about 500 μl, comprising 20 mM HEPES-KOH (pH 7.0), 10 mM KCl, 1 mM NaEGTA, 2 mM MgCl2, 1 mM EDTA, 1 mM DTT, 250 mM sucrose, 1 mM PMSF and protease inhibitors cocktail as provided above. The lysate was incubated for 30 minutes on ice and then homogenized using a glass dounce (80 strokes). Nuclei were removed by centrifugation at 1,000 g for 10 minutes at 4° C. Supernatant was additionally centrifuged for 1 hour at 100,000 g and the resulting supernatant (cytosolic fraction) and pellet (mitochondrial fraction) were collected separately, subjected to SDS-PAGE, and Western blotting using an antibody against cytochrome c. The experiment was repeated twice with similar results.
In order to determine the role of the cancer cell's PTP in the effects of the polyphenolic compounds on mitochondrial function, caspase-3 activation and apoptosis, we performed the following experiments. Mia PACA-2 cells were cultured in the absence of serum or growth factors for 24 hours in the presence or absence of quercetin (100 μM), trans-resveratrol (100 μM), Z-VAD FMK (50 μM), cyclosporin A (5 μM) and/or aristolochic acid (50 μM). Cells were collected, washed with ice-cold PBS and resuspended in lysis buffer comprising 0.5% Nonidet P-40 or manufactured by the name IGEPAL CA-630, 0.5 mM EDTA, 150 mM NaCl and 50 mM Tris at pH 7.5. Cell lysates were placed for 30 minutes on a rotator at 4° C. and then centrifuged for 15 minutes at 15,000 g. Cytosolic protein extracts (supernatants) were collected, protein concentrations were determined and the extracts were aliquoted and stored at −80° C. Cytosolic extracts were subjected to SDS-PAGE and Western blot was performed with an antibody against cytochrome c. Blots were then stripped and re-probed with an antibody against tubulin to confirm equal protein loading. The experiment was repeated twice with similar results.
In order to determine the effect of a combination of trans-resveratrol and quercetin on cytochrome c release and caspase-3 activity, the following was conducted. Mia PACA-2 cells were cultured in the absence of serum or growth factors for 24 hours in the presence or absence of trans-resveratrol (25 μM), quercetin (25 μM), or the combination of trans-resveratrol (25 μM) and quercetin (25 μM). Cytosolic extracts were prepared and subject to SDS-PAGE followed by protein transfer. Immunoblot was performed with an antibody against tubulin to confirm equal protein loading.

Mia PACA-2 cells [4] = test: Mitochondrial membrane potential, DiOC6(3) retention; assay type: cell-based, human; conditions: Mia PACA-2, 72 hours, in the presence of serum (FIG. 11)
Description: In order to determine the effects polyphenolic compounds have on mitochondrial membrane potential, the retention of the dye 3,3′-dihexyloxacarbocyanine (DiOC6(3)) was measured as described by Pastorino J G, et al. (1998) J Biol Chem 273:7770-7775, which is herein incorporated by reference. BSp73AS cells were cultured for 6 hours in the absence (control) or presence of 0, 12, 24, 50, and 100 μM quercetin and trans-resveratrol. The cells were loaded with 1 μM DiOC6(3) during the last 30 minutes of treatment with a polyphenolic compound (or vehicle). The cells were then collected and pelleted by centrifugation. The supernatant was removed and the pellet was washed twice with PBS by alternate centrifugation and resuspension. The pellet was then lysed by addition of 1 ml of H2O and homogenized. The concentration of DiOC6(3) was read on a Perkin-Elmer LS-5 fluorescence spectrometer at 488 nm excitation and 500 nm emission. An aliquot of the cells was used for determining the DiOC6(3) fluorescence that was retained by the cells.
Mia PACA-2 cells were cultured for 72 hours in the presence of serum and trans-resveratrol or genistein in the presence or absence of DPI or Tiron. Mitochondrial membrane potential was measured as described above.

NF-κB = NF-κB DNA binding activity (EMSA / gel shift); assay type: cell-based, human; conditions: Mia PACA-2, 72 hours, with serum; DPI 15 μM, trans-resveratrol 100 μM, genistein 100 μM, LY294002 50 μM
Description: In order to determine the role of activated NF-κB in the regulation of apoptosis caused by the polyphenolic compound, the following assay was conducted. BSp73AS cells were cultured for 6 hours and Mia PACA-2 cells were cultured in the absence of serum or growth factors for 24 hours in the absence (controls) or presence of rutin, quercetin, trans-resveratrol, or genistein, each at 100 μM and 20 μM proteosome inhibitor MG-132. Nuclear proteins were isolated and analyzed for NF-κB DNA binding activity with electrophoretic mobility shift assay (EMSA).
Specifically, aliquots of nuclear extracts with equal amount of protein, about 2 to about 10 μg, were mixed in 20 μl reactions with a buffer comprising 10 mM HEPES (pH 7.6), 50 mM KCl, 0.1 mM EDTA, 1 mM DTT, 10% (vol/vol) glycerol and 3 μg poly[d (I-C)]. After aliquots were equilibrated on ice for 5 minutes, binding reactions were stared by addition of 20-60,000 counts/min (20 fM) of ^32P-labeled DNA probes and allowed to proceed for 25-30 minutes at room temperature or up to 1 hour on ice. The oligonucleotide probe
containing the κB binding motif (underlined) was annealed to the complementary oligonucleotide with a 5′-G overhang and end-labeled using Klenow DNA polymerase I. The samples were electrophoresed at room temperature in 0.5×TBE buffer (1×TBE 89 mM Tris base, 89 mM boric acid and 2 mM EDTA) on nondenaturing 4.5% polyacrylamide gel at 200 V. Gels were dried and directly analyzed in the PhosphorImager (Molecular Dynamics, Sunnyvale, Calif.). The experiment was repeated twice.
To study the effects of combinations of DPI and polyphenolic compounds on serum-induced activation of NF-κB and protection from apoptosis, the following assay was conducted. Mia PACA-2 cells were cultured for 72 hours in the presence of serum with or without 100 μM trans-resveratrol, 15 μM DPI, a combination of trans-resveratrol, 100 μM genistein, or a combination of genistein and DPI. NF-κB binding activity was measured in nuclear extracts by gel shift assay as described above.
To determine the effects of LY29400 and DPI on NF-κB activation, Mia PACA-2 cells were cultured for 72 hours in the presence of serum and 15 μM DPI with or without 50 μM LY294002. NF-κB DNA binding activity was measured in nuclear extracts by gel shift assay as described above.

Mia PACA-2 cells [5] = test: Intracellular ROS (H2O2) by flow cytometry of DCF-labeled cells; assay type: cell-based, human; conditions: Mia PACA-2, 72 hours; DPI 15 μM
Description: To determine the effect of serum in cancer cells, the following assay was conducted. Mia PACA-2 pancreatic cancer cells were cultured for 72 hours in the absence and presence of serum (15% FBS) or 100 ng/ml insulin growth factor-1 (IGF-1). Dichloroflyorescein diocetate (DCF-DA) was used to label the cells. Intracellular H2O2 was measured by flow cytometry of DCF-labeled cells. Intracellular ROS was measured using oxidation-sensitive cell-permeable fluorescent probe, dichlorofluorescein diacetate (DCF-DA) to measure H2O2. See Royall J A, and Ischiropoulos H. (1993) Arch. Biochem. Biophys. 302:348-355. To measure ROS, cells were collected after incubation, washed with PBS, and incubated for 15 minutes with […] DCF-DA. Samples were analyzed by flow cytometry. The amount of DCF-DA fluorescence correlated with the amount of ROS in the cells To determine the effects of serum, IGF-1, polyphenols and inhibitors of ROS on ROS production in cancer cells, the following assay was conducted. Mia PACA-2 cells were cultured for 72 hours in the presence of serum or IGF-1 with or without antioxidants, intracellular superoxide scavenger tiron (10 mM) or NADPH oxidase inhibitor, diphenylene iodonium (DPI, 15 μM) and trans-resveratrol (100 μM), genistein (100 μM), or a combination of polyphenolic compounds and antioxidants. Intracellular H2O2 was measured by flow cytometry of DCF-labeled cells. Mia PACA-2 cells and BSp73AS cells were cultured in Dulbecco's Modified Eagle's Medium supplemented with 10% heat inactivated FBS, penicillin G (100 U/ml) and streptomycin ([…]) in a humidified atmosphere comprising 5% (v/v) CO2. When the cells were 90% confluent they were detached, washed with alternating centrifugation and resuspension, plated and incubated in the same media with or without FBS or IGF-1 and with or without a given polyphenolic compound and with or without a given ROS inhibitor.

SMILES	PARP cleavage by quercetin and trans-resveratrol in the presence of caspase inhibitor (PARP [1])	apoptosis (DNA fragmentation) caused by combinations of ROS inhibitor and polyphenolic compound, effect of Z-VAD (Mia PACA-2 cells [2]; Z-VAD 100 μM)	caspase activity in cells treated with polyphenolic compounds, effect of Z-VAD (caspase-3)	PARP cleavage by quercetin and trans-resveratrol in the presence of caspase inhibitor (PARP [3])	release of cytochrome c into the cytoplasm in control (untreated) cells (cytochrome c; no serum)	cytosolic cytochrome c release caused by quercetin or trans-resveratrol (cytochrome c; polyphenol 100 μM)	oligonucleosomal DNA fragmentation (apoptosis) (Mia PACA-2 cells [2]; DPI 15 μM, Tiron 10 mM, genistein 100 μM, trans-resveratrol 100 or 50 μM)	mitochondrial membrane potential (Mia PACA-2 cells [4])	NF-κB activation caused by serum (NF-κB)	increase in ROS production caused by trans-resveratrol and genistein, effect of DPI (Mia PACA-2 cells [5])
COC(=O)C[C@H](NC(=O)[C@H](C)NC(=O)[C@@H](NC(=O)OCc1ccccc1)C(C)C)C(=O)CF [Z-VAD, reference compound] (Cbz-Val-Ala-Asp(OMe)-CH2F)	cleavage did not occur	inhibits apoptosis caused by the combinations	blocked caspase activity	cleavage did not occur	inhibited the release of cytochrome c	had no effect	–	–	–	–
c1ccc2c(c1)[I+]c1ccccc1-2 [DPI, diphenylene iodonium, reference compound]	–	–	–	–	–	–	either no or small effects	markedly depolarized the mitochondrial membrane	not inhibited	prevented
O=S(=O)(O)c1cc(O)c(O)c(S(=O)(=O)O)c1 [Tiron, reference compound]	–	–	–	–	–	–	–	markedly depolarized the mitochondrial membrane	–	–
